# Assays:
# Design in all cases: scale not given: the % may be the effect or the level left
# [1] = biological target: Calcium/calmodulin-dependent protein kinase type II subunit alpha (Homo sapiens) (UniProt Q9UQM7); experiment: Inhibition of DNA-tagged human CAMK2A assessed as percent of control at 50000 nM by qPCR analysis relative to control
# [2] = biological target: Mitogen-activated protein kinase 12 (Homo sapiens) (UniProt P53778); experiment: Inhibition of DNA-tagged human p38-gamma assessed as percent of control at 50000 nM by qPCR analysis relative to control
# [3] = biological target: Serine/threonine-protein kinase Nek2 (Homo sapiens) (UniProt P51955); experiment: Inhibition of DNA-tagged human NEK2 assessed as percent of control at 50000 nM by qPCR analysis relative to control
# [4] = biological target: TGF-beta receptor type-2 (Homo sapiens) (UniProt P37173); experiment: Inhibition of DNA-tagged human TGFBR2 assessed as percent of control at 50000 nM by qPCR analysis relative to control
# [5] = biological target: Uncharacterized serine/threonine-protein kinase SBK3 (Homo sapiens) (UniProt P0C264); experiment: Inhibition of DNA-tagged human SgK110 assessed as percent of control at 50000 nM by qPCR analysis relative to control
# [6] = biological target: Dual specificity mitogen-activated protein kinase kinase 3 (Homo sapiens) (UniProt P46734); experiment: Inhibition of DNA-tagged human MEK3 assessed as percent of control at 50000 nM by qPCR analysis relative to control
# [7] = biological target: Cyclin-dependent kinase 8 (Homo sapiens) (UniProt P49336); experiment: Inhibition of DNA-tagged human CDK8 assessed as percent of control at 50000 nM by qPCR analysis relative to control
# [8] = biological target: Receptor tyrosine-protein kinase erbB-3 (Homo sapiens) (UniProt P21860); experiment: Inhibition of DNA-tagged human ERBB3 assessed as percent of control at 50000 nM by qPCR analysis relative to control
# [9] = biological target: Tyrosine-protein kinase ABL1 (Homo sapiens) (UniProt P00519); experiment: Inhibition of DNA-tagged phosphorylated human ABL1 assessed as percent of control at 50000 nM by qPCR analysis relative to control
# [10] = biological target: Serine/threonine-protein kinase DCLK3 (Homo sapiens) (UniProt Q9C098); experiment: Inhibition of DNA-tagged human DCAMKL3 assessed as percent of control at 50000 nM by qPCR analysis relative to control
# [11] = biological target: Dual specificity tyrosine-phosphorylation-regulated kinase 1B (Homo sapiens) (UniProt Q9Y463); experiment: Inhibition of DNA-tagged human DYRK1B assessed as percent of control at 50000 nM by qPCR analysis relative to control
# [12] = biological target: Cyclin-dependent kinase 18 (Homo sapiens) (UniProt Q07002); experiment: Inhibition of DNA-tagged human PCTK3 assessed as percent of control at 50000 nM by qPCR analysis relative to control
# [13] = tested on: Mast/stem cell growth factor receptor Kit (Homo sapiens), P10721 [D816H]; experiment: Inhibition of DNA-tagged human KIT D816H mutant assessed as percent of control at 50000 nM by qPCR analysis relative to control
# [14] = tested on: Fibroblast growth factor receptor 3 (Homo sapiens), P22607 [G697C]; experiment: Inhibition of DNA-tagged human FGFR3 G697C mutant assessed as percent of control at 50000 nM by qPCR analysis relative to control
# [15] = biological target: Serine/threonine-protein kinase NIM1 (Homo sapiens) (UniProt Q8IY84); experiment: Inhibition of DNA-tagged human NIM1 assessed as percent of control at 50000 nM by qPCR analysis relative to control
# [16] = biological target: Epithelial discoidin domain-containing receptor 1 (Homo sapiens) (UniProt Q08345); experiment: Inhibition of DNA-tagged human DDR1 assessed as percent of control at 50000 nM by qPCR analysis relative to control
# [17] = biological target: Mitogen-activated protein kinase 3 (Homo sapiens) (UniProt P27361); experiment: Inhibition of DNA-tagged human ERK1 assessed as percent of control at 50000 nM by qPCR analysis relative to control
# [18] = biological target: Vascular endothelial growth factor receptor 3 (Homo sapiens) (UniProt P35916); experiment: Inhibition of DNA-tagged human FLT4 assessed as percent of control at 50000 nM by qPCR analysis relative to control
# [19] = biological target: Wee1-like protein kinase (Homo sapiens) (UniProt P30291); experiment: Inhibition of DNA-tagged human WEE1 assessed as percent of control at 50000 nM by qPCR analysis relative to control
# [20] = biological target: Serine/threonine-protein kinase PLK4 (Homo sapiens) (UniProt O00444); experiment: Inhibition of DNA-tagged human PLK4 assessed as percent of control at 50000 nM by qPCR analysis relative to control
# [21] = biological target: Tyrosine-protein kinase JAK1 (Homo sapiens) (UniProt P23458); experiment: Inhibition of DNA-tagged human JAK1 JH1 catalytic domain assessed as percent of control at 50000 nM by qPCR analysis relative to control
# [22] = tested on: Epidermal growth factor receptor (Homo sapiens), P00533 [L861Q]; experiment: Inhibition of DNA-tagged human EGFR L861Q mutant assessed as percent of control at 50000 nM by qPCR analysis relative to control
# [23] = tested on: Epidermal growth factor receptor (Homo sapiens), P00533 [L858R]; experiment: Inhibition of DNA-tagged human EGFR L858R mutant assessed as percent of control at 50000 nM by qPCR analysis relative to control
# [24] = biological target: Serine/threonine-protein kinase 32A (Homo sapiens) (UniProt Q8WU08); experiment: Inhibition of DNA-tagged human YANK1 assessed as percent of control at 50000 nM by qPCR analysis relative to control
# [25] = biological target: Serine/threonine-protein kinase TNNI3K (Homo sapiens) (UniProt Q59H18); experiment: Inhibition of DNA-tagged human TNNI3K assessed as percent of control at 50000 nM by qPCR analysis relative to control
# [26] = tested on: Tyrosine-protein kinase ABL1 (Homo sapiens), P00519 [F317L]; experiment: Inhibition of DNA-tagged phosphorylated human ABL1 F317L mutant assessed as percent of control at 50000 nM by qPCR analysis relative to control
# [27] = biological target: Receptor-interacting serine/threonine-protein kinase 4 (Homo sapiens) (UniProt P57078); experiment: Inhibition of DNA-tagged human RIPK4 assessed as percent of control at 50000 nM by qPCR analysis relative to control
# [28] = tested on: Tyrosine-protein kinase ABL1 (Homo sapiens), P00519 [F317I]; experiment: Inhibition of DNA-tagged non-phosphorylated human ABL1 F317I mutant assessed as percent of control at 50000 nM by qPCR analysis relative to control
# [29] = biological target: Mitogen-activated protein kinase kinase kinase 6 (Homo sapiens) (UniProt O95382); experiment: Inhibition of DNA-tagged human ASK2 assessed as percent of control at 50000 nM by qPCR analysis relative to control
# Chain of Mitogen-activated protein kinase kinase kinase 6 (Homo sapiens) (O95382 whole entry): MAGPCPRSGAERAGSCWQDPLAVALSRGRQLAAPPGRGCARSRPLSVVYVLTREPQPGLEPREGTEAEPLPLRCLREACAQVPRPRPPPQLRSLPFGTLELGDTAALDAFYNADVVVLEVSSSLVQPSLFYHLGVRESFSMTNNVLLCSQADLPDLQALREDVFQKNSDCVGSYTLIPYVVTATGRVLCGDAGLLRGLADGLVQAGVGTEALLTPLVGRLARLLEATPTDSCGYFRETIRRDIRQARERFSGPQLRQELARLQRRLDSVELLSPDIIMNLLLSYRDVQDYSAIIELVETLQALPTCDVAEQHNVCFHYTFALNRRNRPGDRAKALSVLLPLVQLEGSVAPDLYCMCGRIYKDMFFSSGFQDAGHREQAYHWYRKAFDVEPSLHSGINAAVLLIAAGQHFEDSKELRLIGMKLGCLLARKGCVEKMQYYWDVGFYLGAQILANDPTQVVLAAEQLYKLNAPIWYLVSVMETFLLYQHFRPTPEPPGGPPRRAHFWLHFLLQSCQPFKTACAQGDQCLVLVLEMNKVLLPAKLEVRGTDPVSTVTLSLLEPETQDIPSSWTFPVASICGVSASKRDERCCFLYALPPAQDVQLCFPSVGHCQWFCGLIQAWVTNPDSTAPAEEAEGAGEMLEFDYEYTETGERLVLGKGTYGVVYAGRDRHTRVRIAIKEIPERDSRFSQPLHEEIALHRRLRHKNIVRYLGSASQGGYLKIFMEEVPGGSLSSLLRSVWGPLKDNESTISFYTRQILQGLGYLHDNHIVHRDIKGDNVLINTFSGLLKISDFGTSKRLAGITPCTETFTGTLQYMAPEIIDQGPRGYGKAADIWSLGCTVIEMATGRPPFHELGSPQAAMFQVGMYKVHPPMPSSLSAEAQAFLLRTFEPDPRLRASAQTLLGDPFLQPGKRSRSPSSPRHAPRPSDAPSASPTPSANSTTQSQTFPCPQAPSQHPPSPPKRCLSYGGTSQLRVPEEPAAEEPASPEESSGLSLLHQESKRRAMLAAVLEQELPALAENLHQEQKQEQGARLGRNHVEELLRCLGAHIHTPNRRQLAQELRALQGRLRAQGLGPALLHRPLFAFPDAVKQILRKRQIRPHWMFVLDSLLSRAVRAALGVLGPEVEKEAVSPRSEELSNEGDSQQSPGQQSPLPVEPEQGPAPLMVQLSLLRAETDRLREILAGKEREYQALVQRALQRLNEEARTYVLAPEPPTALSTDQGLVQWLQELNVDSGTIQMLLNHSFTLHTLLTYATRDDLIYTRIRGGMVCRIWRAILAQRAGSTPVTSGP
# Chain of Vascular endothelial growth factor receptor 3 (Homo sapiens) (P35916 whole entry): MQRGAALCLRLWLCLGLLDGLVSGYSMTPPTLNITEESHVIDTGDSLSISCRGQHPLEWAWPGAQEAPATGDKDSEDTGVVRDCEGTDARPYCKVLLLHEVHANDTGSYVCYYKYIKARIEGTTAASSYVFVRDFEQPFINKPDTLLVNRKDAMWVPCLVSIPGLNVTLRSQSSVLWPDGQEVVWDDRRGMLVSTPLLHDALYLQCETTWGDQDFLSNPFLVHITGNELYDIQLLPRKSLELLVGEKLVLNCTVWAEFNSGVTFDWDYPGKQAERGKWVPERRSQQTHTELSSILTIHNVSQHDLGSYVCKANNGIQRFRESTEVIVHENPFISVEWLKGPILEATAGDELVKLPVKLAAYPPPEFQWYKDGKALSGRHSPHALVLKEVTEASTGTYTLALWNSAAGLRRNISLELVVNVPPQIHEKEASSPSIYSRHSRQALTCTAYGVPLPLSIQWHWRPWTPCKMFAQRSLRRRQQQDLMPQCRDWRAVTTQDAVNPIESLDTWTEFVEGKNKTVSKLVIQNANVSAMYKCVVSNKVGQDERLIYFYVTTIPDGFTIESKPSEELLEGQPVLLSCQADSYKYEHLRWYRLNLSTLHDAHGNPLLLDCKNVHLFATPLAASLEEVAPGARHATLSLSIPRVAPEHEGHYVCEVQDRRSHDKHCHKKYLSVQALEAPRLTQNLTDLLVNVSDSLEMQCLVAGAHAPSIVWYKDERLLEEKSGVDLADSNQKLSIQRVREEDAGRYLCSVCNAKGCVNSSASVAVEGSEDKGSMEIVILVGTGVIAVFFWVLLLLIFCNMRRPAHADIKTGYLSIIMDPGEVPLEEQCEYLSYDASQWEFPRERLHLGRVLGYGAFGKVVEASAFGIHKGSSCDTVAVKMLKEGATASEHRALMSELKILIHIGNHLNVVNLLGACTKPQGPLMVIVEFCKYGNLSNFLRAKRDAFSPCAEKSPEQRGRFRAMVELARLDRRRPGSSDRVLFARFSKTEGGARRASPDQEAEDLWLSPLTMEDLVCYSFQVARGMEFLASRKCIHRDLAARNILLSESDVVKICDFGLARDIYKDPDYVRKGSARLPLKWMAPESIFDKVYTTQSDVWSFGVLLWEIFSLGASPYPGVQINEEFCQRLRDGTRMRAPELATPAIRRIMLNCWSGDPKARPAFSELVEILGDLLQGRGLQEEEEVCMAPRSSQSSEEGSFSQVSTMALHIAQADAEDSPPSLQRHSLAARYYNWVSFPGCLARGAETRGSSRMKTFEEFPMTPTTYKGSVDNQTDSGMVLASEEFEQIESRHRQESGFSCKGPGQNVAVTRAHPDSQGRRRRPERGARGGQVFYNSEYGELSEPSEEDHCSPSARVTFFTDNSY
# Chain of Cyclin-dependent kinase 8 (Homo sapiens) (P49336 whole entry): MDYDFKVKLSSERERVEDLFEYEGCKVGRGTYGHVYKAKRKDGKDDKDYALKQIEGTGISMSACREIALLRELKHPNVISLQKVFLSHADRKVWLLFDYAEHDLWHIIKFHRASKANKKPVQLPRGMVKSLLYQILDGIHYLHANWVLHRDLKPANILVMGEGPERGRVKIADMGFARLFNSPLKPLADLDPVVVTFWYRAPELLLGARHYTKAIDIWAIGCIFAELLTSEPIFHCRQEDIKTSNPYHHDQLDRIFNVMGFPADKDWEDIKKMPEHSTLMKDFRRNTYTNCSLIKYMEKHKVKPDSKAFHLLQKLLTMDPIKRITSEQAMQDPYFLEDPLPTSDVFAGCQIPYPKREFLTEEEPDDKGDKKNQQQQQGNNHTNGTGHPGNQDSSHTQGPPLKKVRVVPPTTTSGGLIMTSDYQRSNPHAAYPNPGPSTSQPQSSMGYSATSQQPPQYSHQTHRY
# Chain of Mitogen-activated protein kinase 12 (Homo sapiens) (P53778 whole entry): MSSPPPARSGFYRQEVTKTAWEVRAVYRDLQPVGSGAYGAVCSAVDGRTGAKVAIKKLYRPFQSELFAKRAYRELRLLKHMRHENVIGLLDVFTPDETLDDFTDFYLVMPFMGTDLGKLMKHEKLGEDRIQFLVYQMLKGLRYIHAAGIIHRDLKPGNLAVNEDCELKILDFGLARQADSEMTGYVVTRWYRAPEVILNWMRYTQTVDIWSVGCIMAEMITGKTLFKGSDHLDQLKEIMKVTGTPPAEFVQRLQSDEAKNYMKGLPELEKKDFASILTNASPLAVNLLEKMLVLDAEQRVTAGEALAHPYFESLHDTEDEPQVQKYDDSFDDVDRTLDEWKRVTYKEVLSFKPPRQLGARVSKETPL
# Chain of Epithelial discoidin domain-containing receptor 1 (Homo sapiens) (Q08345 whole entry, the tested form may be a part): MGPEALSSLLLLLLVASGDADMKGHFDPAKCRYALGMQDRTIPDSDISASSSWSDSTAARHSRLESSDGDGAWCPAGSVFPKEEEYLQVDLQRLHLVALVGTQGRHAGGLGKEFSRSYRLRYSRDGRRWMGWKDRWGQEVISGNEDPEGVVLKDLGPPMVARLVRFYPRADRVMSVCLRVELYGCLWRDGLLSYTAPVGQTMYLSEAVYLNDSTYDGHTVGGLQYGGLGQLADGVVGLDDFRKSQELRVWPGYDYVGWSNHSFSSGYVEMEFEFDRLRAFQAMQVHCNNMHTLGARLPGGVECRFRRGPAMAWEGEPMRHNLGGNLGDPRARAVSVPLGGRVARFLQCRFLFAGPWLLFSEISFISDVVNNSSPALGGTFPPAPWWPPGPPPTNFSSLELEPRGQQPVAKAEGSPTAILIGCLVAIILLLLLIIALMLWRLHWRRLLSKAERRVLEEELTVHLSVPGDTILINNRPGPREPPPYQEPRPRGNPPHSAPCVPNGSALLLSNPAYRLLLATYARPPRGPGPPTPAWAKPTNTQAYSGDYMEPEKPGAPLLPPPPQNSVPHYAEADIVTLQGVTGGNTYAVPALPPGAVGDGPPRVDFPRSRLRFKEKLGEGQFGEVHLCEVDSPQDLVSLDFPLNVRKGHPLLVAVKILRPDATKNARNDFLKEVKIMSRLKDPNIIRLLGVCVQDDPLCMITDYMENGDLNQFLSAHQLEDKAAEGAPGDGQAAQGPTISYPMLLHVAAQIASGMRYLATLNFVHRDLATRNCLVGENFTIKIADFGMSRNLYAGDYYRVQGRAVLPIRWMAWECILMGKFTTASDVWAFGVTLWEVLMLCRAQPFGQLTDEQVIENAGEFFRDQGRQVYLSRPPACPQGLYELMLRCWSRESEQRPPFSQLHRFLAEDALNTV
# Chain of Uncharacterized serine/threonine-protein kinase SBK3 (Homo sapiens) (P0C264 whole entry): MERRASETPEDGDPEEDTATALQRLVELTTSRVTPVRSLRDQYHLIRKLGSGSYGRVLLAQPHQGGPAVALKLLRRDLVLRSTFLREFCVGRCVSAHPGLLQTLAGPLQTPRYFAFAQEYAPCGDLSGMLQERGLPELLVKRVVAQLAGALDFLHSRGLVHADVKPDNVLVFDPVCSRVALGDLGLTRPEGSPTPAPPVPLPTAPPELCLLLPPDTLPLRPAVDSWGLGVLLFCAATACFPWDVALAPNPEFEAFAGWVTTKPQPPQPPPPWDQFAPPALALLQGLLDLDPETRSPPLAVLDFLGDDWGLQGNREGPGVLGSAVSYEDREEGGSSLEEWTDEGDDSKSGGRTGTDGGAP
smiles,measurement,setting,value
CN1C(=O)/C(=C2/C(=O)Nc3ccccc32)c2ccccc21,Activity,[1],99%
same,Activity,[2],92%
same,Activity,[3],100%
same,Activity,[4],94%
same,Activity,[5],100%
same,Activity,[6],72%
same,Activity,[7],100%
same,Activity,[8],51%
same,Activity,[9],96%
same,Activity,[10],99%
same,Activity,[11],92%
same,Activity,[12],84%
same,Activity,[13],75%
same,Activity,[14],100%
same,Activity,[15],86%
same,Activity,[16],84%
same,Activity,[17],100%
same,Activity,[18],100%
same,Activity,[19],91%
same,Activity,[20],79%
same,Activity,[21],94%
same,Activity,[22],83%
same,Activity,[23],89%
same,Activity,[24],99%
same,Activity,[25],95%
same,Activity,[26],81%
same,Activity,[27],98%
same,Activity,[28],100%
same,Activity,[29],100%

# Source: ChEMBL document CHEMBL4804284
